# Measured values published in paper PMC4474554 (PLoS ONE, 2015).
# Values joined by “and” are separate entries in the source; they are usually repeats but may differ in a detail not shown here. Identical values can stand only once. “Also recorded” adds a separate entry of the source. Like-named read-outs stand apart in the source and are kept apart here.
# Key:
# phospho-FAK = assay: Western blotting, FAK phosphorylation in NSCLC cell lines; assay type: cell-based
# Experimental: (§1) Next, they were washed out with cold PBS and lysed in 1 × cell lysis buffer [20 mM Tris-HCl (pH 7.5), 150 mM NaCl, 1 mM Na2EDTA, 1 mM EGTA, 1% Triton, 2.5 mM sodium pyrophosphate, 1 mM beta-glycerophosphate, 1 mM Na3VO4, 1 μg/ml leupeptin] (Cell signaling Technology) supplemented with Complete, Mini (Roche, Basel, Switzerland) to extract protein. After the protein concentration was measured, equal amounts of total protein (30 μg) were separated by SDS-PAGE and transferred to PVDF membranes. The proteins on membranes were incubated overnight at 4°C with the primary antibodies. The following secondary antibodies were used: goat antirabbit or antimouse IgG-conjugated horseradish peroxidase (HRP) (Santa Cruz Biotechnology, Santa Cruz, CA). To detect specific signals, the membranes were incubated by ECL plus Western Blotting Detection Reagents (Amersham Biosciences UK Limited, Buckinghamshire, UK).
# phospho-IGF-IR [1] = assay: Western blotting, IGF-IR phosphorylation in NSCLC cell lines; assay type: cell-based; settings: up to a concentration of 5 μM; PC-9, HCC827, NCI-H1975, RPC-9, NCI-H1299, NCI-H1819
# Experimental: as §1
# phospho-IGF-IR [2] = assay: Western blotting, IGF-IR phosphorylation after serum-starvation; assay type: cell-based; settings: PC-9, RPC-9, NCI-H1299, NCI-H1819; regardless of IGF-I ligand stimulation; TAE226 two hours
# Experimental: as §1
# [3] = system: phospho-EGFR and phospho-AKT; assay: Western blotting, EGFR and AKT phosphorylation in transfected HEK-293T; assay type: cell-based; settings: HEK-293T cell with the mutant EGFR (L858R)
# Experimental: as §1
# PC-9 xenograft = PC-9 xenograft mouse model; assay type: in vivo, BALB/c-nu/nu female nude mice; settings: oral, once a day, 14 days, 30, 60 and 90 mg/kg, dose-dependent
# Experimental: (§2) In this experiment, we used BALB/c-nu/nu female nude mice at 4–6 weeks of age that were purchased from Charles River Laboratories Japan, Inc (Yokohama, Japan). They were maintained under specific-pathogen-free conditions in accordance with the guidelines of the Animal Care and Use Committee at Okayama University. […] Every three days, body weight of the mice and the major axis and minor axis of each tumor were measured and calculated tumor volume using the following formula; (major axis) × (minor axis)^2 × 1/2 [37, 38]. For the 14 days, tumor volume, tumor growth rate and the body weight were analyzed as an average of the each group.
# RPC-9 xenograft = RPC-9 xenograft mouse model; assay type: in vivo, BALB/c-nu/nu female nude mice; settings: oral, once a day, 14 days, 30, 60 and 90 mg/kg, dose-dependent
# Experimental: as §2
# Insulin-R = system: Insulin-R; design: method as in earlier work; settings: updated data; cited from earlier work
# c-Src = settings: updated data; cited from earlier work
# Syk = system: Syk; design: method as in earlier work; settings: updated data; cited from earlier work
# HER2 = settings: updated data; cited from earlier work
# Flt-1 = system: Flt-1; design: method as in earlier work; settings: updated data; cited from earlier work
# Flt-4 = system: Flt-4; design: method as in earlier work; settings: updated data; cited from earlier work
# FGFR-1 = settings: updated data; cited from earlier work
# FGFR-3 (K650E) = system: FGFR-3 (K650E); design: method as in earlier work; settings: updated data; cited from earlier work
# c-Abl = system: c-Abl; design: method as in earlier work; settings: updated data; cited from earlier work
# Tek = system: Tek; design: method as in earlier work; settings: updated data; cited from earlier work
# JAK-2 = system: JAK-2; design: method as in earlier work; settings: updated data; cited from earlier work
# ALK = settings: updated data; cited from earlier work
# CDK1/cyclin B = system: CDK1/cyclin B; design: method as in earlier work; settings: updated data; cited from earlier work
# c-Raf = system: c-Raf; design: method as in earlier work; settings: updated data; cited from earlier work
# BRAF (V600E) = system: BRAF (V600E); design: method as in earlier work; settings: updated data; cited from earlier work
# PKA = system: PKA; design: method as in earlier work; settings: updated data; cited from earlier work
# PKB/AKT = system: PKB/AKT; design: method as in earlier work; settings: updated data; cited from earlier work
# A549 = assay: MTS assay, A549
# NCI-H838 = assay: MTS assay, NCI-H838
# NCI-H3255 = assay: MTS assay, NCI-H3255
# NCI-H1975 = assay: MTS assay, NCI-H1975
# NCI-H2228 = assay: MTS assay, NCI-H2228
structure (smiles),measurement,setting,value
CNC(=O)c1ccccc1Nc1nc(Nc2ccc(N3CCOCC3)cc2OC)ncc1Cl [TAE226],concentration at which FAK phosphorylation was inhibited,phospho-FAK; data not shown,[…]
same,phosphorylation of FAK (Thy397),"phospho-FAK; up to a concentration of 5 μM, PC-9, HCC827, NCI-H1975, RPC-9, NCI-H1299, NCI-H1819",not significantly inhibited; also recorded: not suppressed
same,phosphorylation of IGF-IR (Tyr1131),phospho-IGF-IR [1],not significantly inhibited; also recorded: not suppressed
same,phosphorylation of IGF-IR after serum-starvation,phospho-IGF-IR [2],completely inhibited
same,phosphorylations of EGFR and AKT,[3],inhibited
same,tumor volume / tumor growth compared with vehicle-treated mice,PC-9 xenograft,significantly decreased; also recorded: significantly inhibited
same,tumor volume / tumor growth compared with vehicle-treated mice,RPC-9 xenograft,significantly decreased; also recorded: significantly inhibited
same,IC50,Insulin-R,44 nM
same,IC50,c-Src,910 nM
same,IC50,HER2,950 nM
same,IC50,Flt-4,220 nM
same,IC50,c-Abl,5900 nM
same,IC50,Tek,580 nM
same,IC50,JAK-2,840 nM
same,IC50,CDK1/cyclin B,540 nM
same,IC50,c-Raf,> 10000 nM
same,IC50,BRAF (V600E),1400 nM
same,IC50,PKA,> 10000 nM
same,IC50,PKB/AKT,> 10000 nM
same,IC50,"A549; read-out: IC50 (μM) (mean ± SD), A549, KRAS Codon 12 (G12S), MTS, TAE226 48 hours, gefitinib 72 hours",1.4 ± 0.05 µM
same,IC50,"A549; read-out: each IC50, A549, independent MTS assays",1.4 µM and 1.3 µM
same,IC50,"A549; read-out: mean IC50, A549, mean of independent MTS assays",1.4 µM
same,IC50,"NCI-H838; read-out: IC50 (μM) (mean ± SD), NCI-H838, no alterations, MTS, TAE226 48 hours, gefitinib 72 hours",6.2 ± 0.02 µM
same,IC50,"NCI-H838; read-out: each IC50, NCI-H838, independent MTS assays",6.3 µM and 6.2 µM
same,IC50,"NCI-H838; read-out: mean IC50, NCI-H838, mean of independent MTS assays",6.2 µM
same,IC50,"NCI-H3255; read-out: IC50 (μM) (mean ± SD), NCI-H3255, EGFR Exon 21 (L858R), MTS, TAE226 48 hours, gefitinib 72 hours",0.12 ± 0.005 µM
same,IC50,"NCI-H3255; read-out: each IC50, NCI-H3255, independent MTS assays",0.12 µM and 0.13 µM
same,IC50,"NCI-H3255; read-out: mean IC50, NCI-H3255, mean of independent MTS assays",0.12 µM
same,IC50,"NCI-H1975; read-out: IC50 (μM) (mean ± SD), NCI-H1975, EGFR Exon 21 (L858R) + T790M, MTS, TAE226 48 hours, gefitinib 72 hours",0.17 ± 0.02 µM
same,IC50,"NCI-H2228; read-out: IC50 (μM) (mean ± SD), NCI-H2228, EML4-ALK fusion Variant 3, MTS, TAE226 48 hours, gefitinib 72 hours",0.28 ± 0.001 µM
same,IC50,"NCI-H2228; read-out: each IC50, NCI-H2228, independent MTS assays",0.28 µM
same,IC50,"NCI-H2228; read-out: mean IC50, NCI-H2228, mean of independent MTS assays",0.28 µM
